# Data taken from PubChem BioAssay AID1919000 (Molecular Pharmacology Branch, DTP, NCI, 2023).
# Several values for one entry are separate records, joined by “and”; a condition that tells them apart may be missing. Equal entries are not always repeated.
# Tested on: 653999-131-R-J2-PDC complex spheroids, growth % test/control
# Assay: Anticancer human tumor 653999-131-R-J2-PDC patient-derived lung adenocarcinoma cell line growth inhibition [AhR]
# Settings: for viability, T/C: stronger effect = lower value
# Outline: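 Complex tumor spheroids co-cultured with HUVEC and human MSC stroma; AhR antagonists tested in combination with standard-of-care and investigational agents. Top concentration at or near clinical Cmax (else 10 microM), half-log dilutions; growth expressed as percent test/control.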
# [1] = curve of first compound, second compound 0.1 µM
# [2] = curve of first compound, second compound 0.316 µM
# [3] = curve of first compound, second compound 1 µM
# [4] = curve of first compound, second compound 3.16 µM
# [5] = curve of first compound, second compound 10 µM
# [6] = second compound 0.1 µM, first compound 0.00949 µM
# [7] = second compound 0.1 µM, first compound 0.03 µM
# [8] = second compound 0.1 µM, first compound 0.0949 µM
# [9] = second compound 0.1 µM, first compound 0.3 µM
# [10] = second compound 0.1 µM, first compound 0.949 µM
# [11] = second compound 0.1 µM, first compound 3 µM
# [12] = second compound 0.316 µM, first compound 0.00949 µM
# [13] = second compound 0.316 µM, first compound 0.03 µM
# [14] = second compound 0.316 µM, first compound 0.0949 µM
# [15] = second compound 0.316 µM, first compound 0.3 µM
# [16] = second compound 0.316 µM, first compound 0.949 µM
# [17] = second compound 0.316 µM, first compound 3 µM
# [18] = second compound 1 µM, first compound 0.00949 µM
# [19] = second compound 1 µM, first compound 0.03 µM
# [20] = second compound 1 µM, first compound 0.0949 µM
# [21] = second compound 1 µM, first compound 0.3 µM
# [22] = second compound 1 µM, first compound 0.949 µM
# [23] = second compound 1 µM, first compound 3 µM
# [24] = second compound 3.16 µM, first compound 0.00949 µM
# [25] = second compound 3.16 µM, first compound 0.03 µM
# [26] = second compound 3.16 µM, first compound 0.0949 µM
# [27] = second compound 3.16 µM, first compound 0.3 µM
# [28] = second compound 3.16 µM, first compound 0.949 µM
# [29] = second compound 3.16 µM, first compound 3 µM
# [30] = second compound 10 µM, first compound 0.00949 µM
# [31] = second compound 10 µM, first compound 0.03 µM
# [32] = second compound 10 µM, first compound 0.0949 µM
# [33] = second compound 10 µM, first compound 0.3 µM
# [34] = second compound 10 µM, first compound 0.949 µM
# [35] = second compound 10 µM, first compound 3 µM
# 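Also: spheroids exposed to agents for seven days.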
# 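For viability, T/C in this document: 100% = DMSO vehicle control viability.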
smiles,measurement,setting,value
Nc1ncn(C2CC(O)C(CO)O2)c(=O)n1 (stereo not drawn) + CC(CO)NC(=O)c1cc(-c2ccc(Cl)cc2)nn(-c2cnn(C)c2)c1=O,IC50,[1],> 1 µM
same,IC50,[2],> 1 µM
same,IC50,[3],> 1 µM
same,IC50,[4],> 1 µM
same,IC50,[5],> 1 µM
same,"viability, T/C","second compound 0.1 µM, first compound 0.00316 µM",106%
same,"viability, T/C","second compound 0.1 µM, first compound 0.01 µM",110%
same,"viability, T/C","second compound 0.1 µM, first compound 0.0316 µM",103%
same,"viability, T/C","second compound 0.1 µM, first compound 0.1 µM",89.4%
same,"viability, T/C","second compound 0.1 µM, first compound 0.316 µM",84.5%
same,"viability, T/C","second compound 0.1 µM, first compound 1 µM",79.9%
same,"viability, T/C","second compound 0.316 µM, first compound 0.00316 µM",106%
same,"viability, T/C","second compound 0.316 µM, first compound 0.01 µM",110%
same,"viability, T/C","second compound 0.316 µM, first compound 0.0316 µM",118%
same,"viability, T/C","second compound 0.316 µM, first compound 0.1 µM",89.8%
same,"viability, T/C","second compound 0.316 µM, first compound 0.316 µM",91.3%
same,"viability, T/C","second compound 0.316 µM, first compound 1 µM",83%
same,"viability, T/C","second compound 1 µM, first compound 0.00316 µM",104%
same,"viability, T/C","second compound 1 µM, first compound 0.01 µM",108%
same,"viability, T/C","second compound 1 µM, first compound 0.0316 µM",122%
same,"viability, T/C","second compound 1 µM, first compound 0.1 µM",109%
same,"viability, T/C","second compound 1 µM, first compound 0.316 µM",88.4%
same,"viability, T/C","second compound 1 µM, first compound 1 µM",86.4%
same,"viability, T/C","second compound 3.16 µM, first compound 0.00316 µM",106%
same,"viability, T/C","second compound 3.16 µM, first compound 0.01 µM",111%
same,"viability, T/C","second compound 3.16 µM, first compound 0.0316 µM",119%
same,"viability, T/C","second compound 3.16 µM, first compound 0.1 µM",110%
same,"viability, T/C","second compound 3.16 µM, first compound 0.316 µM",90.9%
same,"viability, T/C","second compound 3.16 µM, first compound 1 µM",87.8%
same,"viability, T/C","second compound 10 µM, first compound 0.00316 µM",117%
same,"viability, T/C","second compound 10 µM, first compound 0.01 µM",116%
same,"viability, T/C","second compound 10 µM, first compound 0.0316 µM",109%
same,"viability, T/C","second compound 10 µM, first compound 0.1 µM",126%
same,"viability, T/C","second compound 10 µM, first compound 0.316 µM",99%
same,"viability, T/C","second compound 10 µM, first compound 1 µM",109%
COc1cc(Nc2ncc3c(n2)-c2ccc(Cl)cc2C(c2c(F)cccc2OC)=NC3)ccc1C(=O)O,"viability, T/C",compound 0.0316 µM,93.1% and 93.5% and 98%
same,"viability, T/C",compound 0.1 µM,73% and 85% and 75.2%
same,"viability, T/C",compound 0.316 µM,75.1% and 70.2% and 68.6%
same,"viability, T/C",compound 1 µM,71.5% and 66.9% and 67.2%
same,"viability, T/C",compound 3.16 µM,66.2% and 68.2% and 70.6%
same,"viability, T/C",compound 10 µM,60.7% and 64.3% and 65.4%
same,IC50,curve of compound,> 10 µM
CCN(c1cc(-c2ccc(CN3CCOCC3)cc2)cc(C(=O)NCc2c(C)cc(C)[nH]c2=O)c1C)C1CCOCC1 + Cc1ccccc1N=Nc1ccc(NC(=O)c2ccnn2C)c(C)c1,IC50,[1],> 3 µM
same,IC50,[2],> 3 µM
same,IC50,[3],> 3 µM
same,IC50,[4],> 3 µM
same,IC50,[5],> 3 µM
same,"viability, T/C",[6],92.9%
same,"viability, T/C",[7],102%
same,"viability, T/C",[8],97.9%
same,"viability, T/C",[9],103%
same,"viability, T/C",[10],97.8%
same,"viability, T/C",[11],92.7%
same,"viability, T/C",[12],93.2%
same,"viability, T/C",[13],95.6%
same,"viability, T/C",[14],95.5%
same,"viability, T/C",[15],95.3%
same,"viability, T/C",[16],93.3%
same,"viability, T/C",[17],92.5%
same,"viability, T/C",[18],91.6%
same,"viability, T/C",[19],95.2%
same,"viability, T/C",[20],89%
same,"viability, T/C",[21],91.8%
same,"viability, T/C",[22],88.3%
same,"viability, T/C",[23],93%
same,"viability, T/C",[24],102%
same,"viability, T/C",[25],96.1%
same,"viability, T/C",[26],92.8%
same,"viability, T/C",[27],89.5%
same,"viability, T/C",[28],86.3%
same,"viability, T/C",[29],84%
same,"viability, T/C",[30],82.1%
same,"viability, T/C",[31],80.8%
same,"viability, T/C",[32],81.6%
same,"viability, T/C",[33],86.1%
same,"viability, T/C",[34],78.8%
same,"viability, T/C",[35],79.9%
COc1cccc2c1C(=O)c1c(O)c3c(c(O)c1C2=O)CC(O)(C(=O)CO)CC3OC1CC(N)C(O)C(C)O1 (stereo not drawn),"viability, T/C",compound 0.0316 µM,62.4% and 56% and 66.2%
same,"viability, T/C",compound 0.1 µM,40.9% and 45.6% and 56.4%
same,"viability, T/C",compound 0.316 µM,28.3% and 26.5% and 28.1%
same,"viability, T/C",compound 1 µM,7.89% and 10.5% and 10.6%
same,"viability, T/C",compound 3.16 µM,3.94% and 7.29% and 3.85%
same,"viability, T/C",compound 10 µM,10.6% and 20.5% and 19.3%
same,IC50,curve of compound,0.0662 µM and 0.0653 µM and 0.132 µM
CCN(c1cc(-c2ccc(CN3CCOCC3)cc2)cc(C(=O)NCc2c(C)cc(C)[nH]c2=O)c1C)C1CCOCC1 + Cc1cncc(-c2nc(NCCc3c[nH]c4ccccc34)c3ncn(C(C)C)c3n2)c1,IC50,[1],> 3 µM
same,IC50,[2],> 3 µM
same,IC50,[3],> 3 µM
same,IC50,[4],> 3 µM
same,IC50,[5],0.165 µM
same,"viability, T/C",[6],96.7%
same,"viability, T/C",[7],105%
same,"viability, T/C",[8],104%
same,"viability, T/C",[9],94.6%
same,"viability, T/C",[10],97.9%
same,"viability, T/C",[11],102%
same,"viability, T/C",[12],121%
same,"viability, T/C",[13],122%
same,"viability, T/C",[14],106%
same,"viability, T/C",[15],99.8%
same,"viability, T/C",[16],104%
same,"viability, T/C",[17],103%
same,"viability, T/C",[18],99.7%
same,"viability, T/C",[19],116%
same,"viability, T/C",[20],108%
same,"viability, T/C",[21],114%
same,"viability, T/C",[22],104%
same,"viability, T/C",[23],100%
same,"viability, T/C",[24],105%
same,"viability, T/C",[25],116%
same,"viability, T/C",[26],104%
same,"viability, T/C",[27],96.2%
same,"viability, T/C",[28],98.8%
same,"viability, T/C",[29],113%
same,"viability, T/C",[30],62%
same,"viability, T/C",[31],53.3%
same,"viability, T/C",[32],51.6%
same,"viability, T/C",[33],50.6%
same,"viability, T/C",[34],37.8%
same,"viability, T/C",[35],28.6%
O=C(C=Cn1cnc(-c2cc(C(F)(F)F)cc(C(F)(F)F)c2)n1)NNc1cnccn1,"viability, T/C",compound 0.00949 µM,104% and 94.3% and 105%
same,"viability, T/C",compound 0.03 µM,73.3% and 78.8% and 101%
same,"viability, T/C",compound 0.0949 µM,61.6% and 77.7% and 76.8%
same,"viability, T/C",compound 0.3 µM,49.5% and 51.9% and 57.9%
same,"viability, T/C",compound 0.949 µM,40.9% and 40.5% and 50.6%
same,"viability, T/C",compound 3 µM,40.6% and 47.6% and 43%
same,IC50,curve of compound,0.264 µM and 0.423 µM and 0.743 µM
O=C(C=Cn1cnc(-c2cc(C(F)(F)F)cc(C(F)(F)F)c2)n1)NNc1cnccn1 + Cc1cncc(-c2nc(NCCc3c[nH]c4ccccc34)c3ncn(C(C)C)c3n2)c1,IC50,[1],0.233 µM
same,IC50,[2],0.293 µM
same,IC50,[3],0.514 µM
same,IC50,[4],0.376 µM
same,IC50,[5],0.0485 µM
same,"viability, T/C",[6],91.2%
same,"viability, T/C",[7],65.8%
same,"viability, T/C",[8],62.2%
same,"viability, T/C",[9],45.2%
same,"viability, T/C",[10],43.8%
same,"viability, T/C",[11],38.3%
same,"viability, T/C",[12],85%
same,"viability, T/C",[13],74%
same,"viability, T/C",[14],64.2%
same,"viability, T/C",[15],50.3%
same,"viability, T/C",[16],39.3%
same,"viability, T/C",[17],43.1%
same,"viability, T/C",[18],95.9%
same,"viability, T/C",[19],77.8%
same,"viability, T/C",[20],66.4%
same,"viability, T/C",[21],50.1%
same,"viability, T/C",[22],48.4%
same,"viability, T/C",[23],42.1%
same,"viability, T/C",[24],95.4%
same,"viability, T/C",[25],86.7%
same,"viability, T/C",[26],74.9%
same,"viability, T/C",[27],51.5%
same,"viability, T/C",[28],40.9%
same,"viability, T/C",[29],41%
same,"viability, T/C",[30],59.2%
same,"viability, T/C",[31],49.8%
same,"viability, T/C",[32],52.2%
same,"viability, T/C",[33],40%
same,"viability, T/C",[34],34.9%
same,"viability, T/C",[35],37.6%
COc1cc(C2c3cc4c(cc3C(OC3OC5COC(C)OC5C(O)C3O)C3COC(=O)C23)OCO4)cc(OC)c1O (stereo not drawn),"viability, T/C",compound 0.0316 µM,99.2% and 89.8% and 87.8%
same,"viability, T/C",compound 0.1 µM,79.3% and 77.8% and 77.9%
same,"viability, T/C",compound 0.316 µM,61.9% and 67.7% and 69.8%
same,"viability, T/C",compound 1 µM,49.1% and 55.2% and 50.4%
same,"viability, T/C",compound 3.16 µM,39.3% and 43.3% and 43.5%
same,"viability, T/C",compound 10 µM,29.4% and 25.6% and 27.5%
same,IC50,curve of compound,0.924 µM and 1.56 µM and 1.45 µM
